Assay results from article PMC5831858, “Pharmacological characterisation of CR6086, a potent prostaglandin E2 receptor 4 antagonist, as a new potential disease-modifying anti-rheumatic drug” (Arthritis Research & Therapy, 2018).
Marks after values point to notes of the source that are not given here.

Experiments:
δ2 (DOP) = δ2 (DOP) (Homo sapiens, UniProt P41143); assay: Opioid receptor δ2 (DOP) binding; conditions: [^3H]DADLE, Human recombinant CHO cells, read-out: CR6086 Activity at 10µM
M3 = M3 (Homo sapiens, UniProt P20309); assay: Muscarinic acetylcholine receptor M3 binding; conditions: [^3H]4-DAMP, Human recombinant CHO cells, read-out: CR6086 Activity at 10µM
AT1 = AT1 (Homo sapiens, UniProt P30556); assay: Angiotensin receptor AT1 binding; conditions: [^125I][Sar^1, IIe^8]-AT-II, Human recombinant HEK-293 cells, read-out: CR6086 Activity at 10µM
µ (MOP) = µ (MOP) (Homo sapiens, UniProt P35372); assay: Opioid receptor µ (MOP) binding; conditions: [^3H]DAMGO, Human recombinant HEK-293 cells, read-out: CR6086 Activity at 10µM
NTS1 (NT1) = NTS1 (NT1) (Homo sapiens, UniProt P30989); assay: NTS1 receptor binding; conditions: [^125I]Tyr^3-neurotensin, Human recombinant CHO cells, read-out: CR6086 Activity at 10µM
NOP (ORL1) = NOP (ORL1) (Homo sapiens, UniProt P41146); assay: Opioid receptor NOP (ORL1) binding; conditions: [^3H]nociceptin, Human recombinant HEK-293 cells, read-out: CR6086 Activity at 10µM
[1] = test system: arthritic rats (collagen-induced arthritis model); assay: Mechanical hyperalgesia (PAM) in CIA rats; assay type: in vivo, rat; conditions: 15 mg/kg, mean ± SEM
Method: Male Lewis rats were immunised by intradermal injection at the base of the tail with an emulsion containing 150 μg of bovine collagen type II (bCII) in complete Freund’s adjuvant (CFA) or received an injection with incomplete Freund’s adjuvant (sham group). Three weeks after the first immunisation, animals were boosted with the same procedure. Three days after booster injection, arthritis had developed in all animals but the sham group. Oedema was assessed via plethysmometer (Ugo Basile, Varese, Italy), and the animals were then randomised to treatment groups. Oedema measurement was performed again after 7 and 14 days of treatment. Animals were blindly scored by two different investigators for clinical signs of arthritis (redness, swelling, pain of hind limb joints) as follows: 0 = normal; 1 = mild but definite redness and swelling of the ankle or wrist or individual digits, regardless of the number of affected digits; 2 = moderate redness and swelling of ankle or wrist; 3 = severe redness and swelling of the entire paw including digits; and 4 = maximally inflamed limb with involvement of multiple joints. The mean of the scores assigned by the investigators was calculated.
In the comparative experiment vs rofecoxib, mechanical hyperalgesia was assessed at the end of treatment by using a digital pressure application measurement (PAM) device (Ugo Basile). Increasing pressure was applied to the lateral side of the knee until the animal attempted to escape or vocalised. The force required to elicit this response was measured in grams (gram-force). An optimal stimulus increase rate of 100 g/second was used, and mechanical thresholds were reached after approximately 10 seconds. This increase was visualised with a rate meter on the built-in display, so the pressure applied was visually controlled. At the end of the experiment, animals were killed, and their hind paws were explanted and processed for histology.

AT2 = AT2 (Homo sapiens, UniProt P50052); assay: Angiotensin receptor AT2 binding; conditions: [^125I]CGP 42112A, Human recombinant HEK-293 cells, read-out: CR6086 Activity at 10µM
κ (KOP) = κ (KOP) (Homo sapiens, UniProt P41145); assay: Opioid receptor κ (KOP) binding; conditions: [^3H]U 69593, Human recombinant CHO cells, read-out: CR6086 Activity at 10µM
A2A = A2A (Homo sapiens, UniProt P29274); assay: Adenosine receptor A2A binding; conditions: [^3H]CGS 21680, Human recombinant HEK-293 cells
[2] = test system: arthritic mice (collagen-induced arthritis model); assay: Serum anti-bCII IgG antibodies (ELISA), CIA mice third study; assay type: in vivo, mouse; conditions: 30 mg/kg CR6086, end of treatment
Method: In a third study, mice were randomised into the following treatment groups: naive, vehicle, 30 mg/kg CR6086, 1 or 3 mg/kg MTX, with the latter administered alone or in combination with 30 mg/kg CR6086. CR6086 was administered orally once daily. MTX was administered intraperitoneally three times per week (every third day). Mice were treated with test drugs for 16 days.
At the end of the treatment period, animals were killed, and their paws were explanted and processed for histology. In the third study, the serum concentrations of immunoglobulin G (IgG) antibodies against bCII were measured by ELISA (catalogue number 2032; Chondrex, Redmond, WA, USA).

BZD (peripheral) = BZD (peripheral) (Rattus norvegicus, UniProt P16257); assay: Benzodiazepine receptor (peripheral) binding; conditions: [^3H]PK 11195, Rat heart, read-out: CR6086 Activity at 10µM
CGRP = CGRP (Homo sapiens, UniProt O60894+Q16602); assay: CGRP receptor binding; conditions: [^125I]hCGRPα, Human recombinant CHO cells, read-out: CR6086 Activity at 10µM
P2X = assay: Purinergic receptor P2X binding; conditions: [^3H]α,β-MeATP, Rat urinary bladder
D4,4 = D4,4 (Homo sapiens, UniProt P21917); assay: Dopamine receptor D4,4 binding; conditions: [^3H]methyl-spiperone, Human recombinant CHO cells, read-out: CR6086 Activity at 10µM
IL-17 release = IL-17 release from human Th17 cells; assay type: cell-based; conditions: Homo sapiens; at 1 μM; 48 and 72 h
Method: PBMCs were purified using Histopaque. CD4^+CD45^+ naive T cells were indirectly selected in a magnetic field (MACS; Miltenyi Biotec). Purified CD4^+ cells were subsequently cultured for 7 days in differentiation medium (RPMI 1640 + FBS 10%, IL-6 30 ng/ml, transforming growth factor [TGF]-β 2.25 ng/ml, IL-23 30 ng/ml, IL-1β 20 ng/ml, anti-interferon (IFN)-γ 1 ng/ml and anti-IL-4 2.5 ng/ml). Th17 cell expansion was stimulated by addition of anti-CD3/[…]anti-CD28 beads to the medium with a cell-to-beads ratio of 1:2. Th17 cells were stimulated with IL-6 30 ng/ml, TGF-β 2.25 ng/ml, IL-23 30 ng/ml, IL-1β 20 ng/ml and PGE2 10 nM for 48 h in the presence of CR6086 (0.03–10 μM) or naproxen (1–10 μM). IL-17 release was measured by ELISA (Abcam, Cambridge, UK).

Chain of D4,4 (P21917 whole entry): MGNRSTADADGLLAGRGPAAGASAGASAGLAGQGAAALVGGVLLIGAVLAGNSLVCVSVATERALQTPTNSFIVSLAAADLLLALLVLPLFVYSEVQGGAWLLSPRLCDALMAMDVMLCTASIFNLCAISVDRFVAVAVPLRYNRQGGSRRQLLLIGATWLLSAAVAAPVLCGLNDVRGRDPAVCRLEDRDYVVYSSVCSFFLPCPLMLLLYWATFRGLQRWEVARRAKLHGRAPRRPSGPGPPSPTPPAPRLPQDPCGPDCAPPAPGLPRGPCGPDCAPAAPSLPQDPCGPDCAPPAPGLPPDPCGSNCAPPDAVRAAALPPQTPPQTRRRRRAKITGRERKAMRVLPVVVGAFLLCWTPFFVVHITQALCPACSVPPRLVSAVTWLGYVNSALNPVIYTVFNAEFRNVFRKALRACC
Chain of CGRP (Q16602 23-461): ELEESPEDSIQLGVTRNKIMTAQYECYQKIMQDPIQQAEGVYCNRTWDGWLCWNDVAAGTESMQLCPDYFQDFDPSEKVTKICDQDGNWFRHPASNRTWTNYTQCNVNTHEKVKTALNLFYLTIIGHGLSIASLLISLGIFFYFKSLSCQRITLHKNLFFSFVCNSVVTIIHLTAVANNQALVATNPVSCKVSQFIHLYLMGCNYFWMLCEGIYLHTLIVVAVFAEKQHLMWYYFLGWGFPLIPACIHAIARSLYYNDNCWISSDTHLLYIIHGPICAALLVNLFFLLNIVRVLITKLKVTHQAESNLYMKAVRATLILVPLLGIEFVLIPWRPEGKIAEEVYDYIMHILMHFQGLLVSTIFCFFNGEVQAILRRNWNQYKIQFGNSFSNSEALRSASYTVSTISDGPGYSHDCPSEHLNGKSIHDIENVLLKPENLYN
Chain of CGRP (O60894 27-148): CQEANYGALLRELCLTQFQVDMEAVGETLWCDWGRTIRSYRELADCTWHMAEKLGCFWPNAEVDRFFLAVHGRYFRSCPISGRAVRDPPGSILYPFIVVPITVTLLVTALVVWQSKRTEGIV
Chain of NOP (ORL1) (P41146 whole entry): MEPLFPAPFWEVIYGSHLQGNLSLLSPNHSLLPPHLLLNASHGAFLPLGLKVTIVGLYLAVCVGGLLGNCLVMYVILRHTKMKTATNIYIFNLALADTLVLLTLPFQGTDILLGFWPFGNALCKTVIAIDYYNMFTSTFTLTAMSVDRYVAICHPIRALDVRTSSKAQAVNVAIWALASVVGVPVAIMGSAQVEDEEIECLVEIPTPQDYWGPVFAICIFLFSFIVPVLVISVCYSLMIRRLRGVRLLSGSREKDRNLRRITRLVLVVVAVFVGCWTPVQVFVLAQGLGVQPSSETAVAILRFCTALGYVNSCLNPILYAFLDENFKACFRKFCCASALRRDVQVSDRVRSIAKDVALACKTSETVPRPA
Chain of δ2 (DOP) (P41143 whole entry): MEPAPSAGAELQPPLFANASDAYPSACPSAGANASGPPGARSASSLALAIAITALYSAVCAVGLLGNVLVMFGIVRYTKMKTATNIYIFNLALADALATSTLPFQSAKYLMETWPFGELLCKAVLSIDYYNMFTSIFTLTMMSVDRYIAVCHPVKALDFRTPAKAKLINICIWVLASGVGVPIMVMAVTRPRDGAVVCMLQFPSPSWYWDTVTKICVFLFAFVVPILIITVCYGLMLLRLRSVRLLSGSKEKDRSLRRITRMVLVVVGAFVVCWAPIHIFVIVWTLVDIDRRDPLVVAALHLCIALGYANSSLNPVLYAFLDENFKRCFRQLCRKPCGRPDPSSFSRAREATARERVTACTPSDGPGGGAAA
Chain of AT2 (P50052 whole entry): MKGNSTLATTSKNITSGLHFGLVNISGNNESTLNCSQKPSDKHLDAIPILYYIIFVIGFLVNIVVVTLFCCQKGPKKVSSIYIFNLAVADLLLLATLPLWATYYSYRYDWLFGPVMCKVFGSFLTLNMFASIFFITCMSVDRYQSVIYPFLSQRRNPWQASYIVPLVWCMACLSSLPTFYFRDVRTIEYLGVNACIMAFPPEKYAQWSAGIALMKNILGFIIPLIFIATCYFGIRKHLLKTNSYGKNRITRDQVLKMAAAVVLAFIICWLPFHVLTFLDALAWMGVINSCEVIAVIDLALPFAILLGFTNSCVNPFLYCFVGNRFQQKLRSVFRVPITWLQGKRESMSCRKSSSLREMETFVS
Chain of AT1 (P30556 whole entry): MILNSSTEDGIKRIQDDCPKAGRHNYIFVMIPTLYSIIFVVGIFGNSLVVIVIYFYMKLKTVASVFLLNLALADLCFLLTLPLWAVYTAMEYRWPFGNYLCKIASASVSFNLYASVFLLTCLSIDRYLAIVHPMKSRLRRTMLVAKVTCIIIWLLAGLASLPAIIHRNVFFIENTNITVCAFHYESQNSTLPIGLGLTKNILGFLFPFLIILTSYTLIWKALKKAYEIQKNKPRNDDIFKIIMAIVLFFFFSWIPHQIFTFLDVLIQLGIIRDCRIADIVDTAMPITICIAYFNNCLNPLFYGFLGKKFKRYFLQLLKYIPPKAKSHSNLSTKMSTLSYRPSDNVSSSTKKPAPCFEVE
Chain of A2A (P29274 whole entry): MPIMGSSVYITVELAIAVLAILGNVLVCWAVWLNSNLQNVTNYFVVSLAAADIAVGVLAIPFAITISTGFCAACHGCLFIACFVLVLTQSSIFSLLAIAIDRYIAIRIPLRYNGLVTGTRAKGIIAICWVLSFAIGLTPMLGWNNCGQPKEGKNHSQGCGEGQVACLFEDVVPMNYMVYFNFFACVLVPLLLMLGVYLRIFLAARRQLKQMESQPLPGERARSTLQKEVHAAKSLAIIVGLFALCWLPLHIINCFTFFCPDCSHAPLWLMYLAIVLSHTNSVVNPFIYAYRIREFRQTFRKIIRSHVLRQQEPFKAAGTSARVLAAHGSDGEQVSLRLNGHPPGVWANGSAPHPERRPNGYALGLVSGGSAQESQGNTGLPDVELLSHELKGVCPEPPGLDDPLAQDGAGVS
Chain of µ (MOP) (P35372 whole entry): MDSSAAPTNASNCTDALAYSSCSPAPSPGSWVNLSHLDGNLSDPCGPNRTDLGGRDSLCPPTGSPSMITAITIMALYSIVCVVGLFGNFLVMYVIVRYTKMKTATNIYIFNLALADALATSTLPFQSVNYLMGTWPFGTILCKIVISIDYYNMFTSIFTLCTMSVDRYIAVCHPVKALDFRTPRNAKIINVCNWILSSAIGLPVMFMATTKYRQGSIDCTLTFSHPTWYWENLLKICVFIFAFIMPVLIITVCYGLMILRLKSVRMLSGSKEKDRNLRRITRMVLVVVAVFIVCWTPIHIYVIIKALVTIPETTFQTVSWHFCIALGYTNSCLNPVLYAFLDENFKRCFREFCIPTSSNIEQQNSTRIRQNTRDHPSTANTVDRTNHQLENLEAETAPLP
Chain of NTS1 (NT1) (P30989 whole entry): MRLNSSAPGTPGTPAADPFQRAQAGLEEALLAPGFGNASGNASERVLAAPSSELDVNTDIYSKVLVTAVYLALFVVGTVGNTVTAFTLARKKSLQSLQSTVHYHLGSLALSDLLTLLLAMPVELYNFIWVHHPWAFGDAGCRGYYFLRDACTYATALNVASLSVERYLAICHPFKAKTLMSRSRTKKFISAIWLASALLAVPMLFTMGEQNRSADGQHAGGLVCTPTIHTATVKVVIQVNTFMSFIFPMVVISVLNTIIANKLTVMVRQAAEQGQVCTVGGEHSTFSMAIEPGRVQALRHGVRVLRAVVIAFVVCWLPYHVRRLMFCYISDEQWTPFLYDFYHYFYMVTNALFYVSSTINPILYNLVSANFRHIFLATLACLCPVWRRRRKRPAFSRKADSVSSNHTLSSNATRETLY
Chain of M3 (P20309 whole entry): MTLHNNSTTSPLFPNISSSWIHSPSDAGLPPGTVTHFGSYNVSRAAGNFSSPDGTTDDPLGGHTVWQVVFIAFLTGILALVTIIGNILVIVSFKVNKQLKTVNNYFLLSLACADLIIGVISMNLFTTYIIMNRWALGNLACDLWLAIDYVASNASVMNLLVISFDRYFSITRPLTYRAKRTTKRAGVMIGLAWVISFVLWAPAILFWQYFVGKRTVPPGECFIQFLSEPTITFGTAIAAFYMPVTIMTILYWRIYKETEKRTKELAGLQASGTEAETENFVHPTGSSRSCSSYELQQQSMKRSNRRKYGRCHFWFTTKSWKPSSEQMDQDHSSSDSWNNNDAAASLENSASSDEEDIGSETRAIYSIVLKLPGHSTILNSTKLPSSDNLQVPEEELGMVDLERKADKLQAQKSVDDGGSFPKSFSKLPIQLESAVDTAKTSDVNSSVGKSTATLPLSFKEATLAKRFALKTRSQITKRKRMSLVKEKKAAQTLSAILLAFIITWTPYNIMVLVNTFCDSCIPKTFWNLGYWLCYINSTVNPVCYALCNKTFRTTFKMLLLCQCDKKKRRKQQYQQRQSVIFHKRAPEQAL
Chain of κ (KOP) (P41145 whole entry): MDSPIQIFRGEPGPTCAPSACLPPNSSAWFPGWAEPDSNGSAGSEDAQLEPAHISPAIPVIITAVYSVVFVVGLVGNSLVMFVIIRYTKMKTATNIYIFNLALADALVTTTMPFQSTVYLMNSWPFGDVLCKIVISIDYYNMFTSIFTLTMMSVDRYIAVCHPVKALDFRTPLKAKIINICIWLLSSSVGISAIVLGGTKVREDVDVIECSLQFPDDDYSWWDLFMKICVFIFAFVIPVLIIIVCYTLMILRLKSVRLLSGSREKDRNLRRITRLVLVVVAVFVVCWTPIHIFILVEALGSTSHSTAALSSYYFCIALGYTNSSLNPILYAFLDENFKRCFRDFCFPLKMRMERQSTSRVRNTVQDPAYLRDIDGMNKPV

`O=C([O-])c1ccc(C2(NC(=O)[C@H]3CC4(CCN3Cc3ccc(C(F)(F)F)cc3)CC4)CC2)cc1.[Na+]` [CR6086, Sodium (R)-4-(1-(6-(4-(trifluoromethyl)benzyl)-6-azaspiro[2.5]octane-5-carboxamido)cyclopropyl)benzoate] was tested, and the inhibition at 10 µM (δ2 (DOP)) was < 20%, the inhibition at 10 µM (M3) was < 20% and the inhibition at 10 µM (AT1) was < 20%. For the same compound, the inhibition at 10 µM (µ (MOP)) was < 20%, the inhibition at 10 µM (NTS1 (NT1)) was < 20% and the inhibition at 10 µM (NOP (ORL1)) was < 20%. The “Mechanical hyperalgesia, Day 0” value ([1]; Day 0) was 850.45 ± 59.57^a gram-force, the “Mechanical hyperalgesia, Day 7” value ([1]; Day 7) was 846.33 ± 43.60^b,c gram-force and the “Mechanical hyperalgesia, Day 14” value ([1]; Day 14) was 1023.09 ± 53.97^d gram-force. The inhibition at 10 µM (AT2) was < 20%, the inhibition at 10 µM (κ (KOP)) was < 20% and the “CR6086 Activity at 10µM” value (A2A) was “IN (IN = < 20% displacement or inhibition (all tables))”. The “Anti-collagen II” value [2] was 324.91 ± 79.82 µg/mL, the inhibition at 10 µM (BZD (peripheral)) was < 20% and the inhibition at 10 µM (CGRP) was < 20%. For the same compound, the “CR6086 Activity at 10µM” value (P2X) was “IN (IN = < 20% displacement or inhibition (all tables))”, the inhibition at 10 µM (D4,4) was < 20% and the inhibition at 1 µM (IL-17 release) was 100%.
